Experimental data published in patent publication US11021467B2, “Phosphatidylinositol 3-kinase inhibitors” (Gilead Sciences, Inc., priority 2014, dated 2021).

How the values were obtained:
Assay in all cases: TR-FRET enzymatic activity assay against PI3K isoforms
Type in all cases: biochemical
PI3Kβ = PI3Kβ (Homo sapiens (Human), UniProt P42338); settings: for IC50: PI3Kβ, TR-FRET, 2×Km ATP, 30 minutes at 25° C.; for PI3Kγ/PI3Kβ ratio: ratio of IC50 values, selectivity for PI3Kβ over PI3Kγ
Description: (§1) The compounds of formula (I) were characterized for their enzymatic activity against the PI3K isoforms. […] TR-FRET monitored the formation of 3,4,5-inositol triphosphate molecule that competed with fluorescently labeled PIP3 for binding to the GRP-1 pleckstrin homology domain protein.

PI3Kγ = PI3Kγ (Homo sapiens (Human), UniProt P48736); settings: 2×Km ATP, 30 minutes at 25° C.
Description: as §1

PI3Kδ = PI3Kδ (Homo sapiens (Human), UniProt O00329); settings: 2×Km ATP, 30 minutes at 25° C.
Description: as §1

Sequence of PI3Kγ (P48736 whole entry): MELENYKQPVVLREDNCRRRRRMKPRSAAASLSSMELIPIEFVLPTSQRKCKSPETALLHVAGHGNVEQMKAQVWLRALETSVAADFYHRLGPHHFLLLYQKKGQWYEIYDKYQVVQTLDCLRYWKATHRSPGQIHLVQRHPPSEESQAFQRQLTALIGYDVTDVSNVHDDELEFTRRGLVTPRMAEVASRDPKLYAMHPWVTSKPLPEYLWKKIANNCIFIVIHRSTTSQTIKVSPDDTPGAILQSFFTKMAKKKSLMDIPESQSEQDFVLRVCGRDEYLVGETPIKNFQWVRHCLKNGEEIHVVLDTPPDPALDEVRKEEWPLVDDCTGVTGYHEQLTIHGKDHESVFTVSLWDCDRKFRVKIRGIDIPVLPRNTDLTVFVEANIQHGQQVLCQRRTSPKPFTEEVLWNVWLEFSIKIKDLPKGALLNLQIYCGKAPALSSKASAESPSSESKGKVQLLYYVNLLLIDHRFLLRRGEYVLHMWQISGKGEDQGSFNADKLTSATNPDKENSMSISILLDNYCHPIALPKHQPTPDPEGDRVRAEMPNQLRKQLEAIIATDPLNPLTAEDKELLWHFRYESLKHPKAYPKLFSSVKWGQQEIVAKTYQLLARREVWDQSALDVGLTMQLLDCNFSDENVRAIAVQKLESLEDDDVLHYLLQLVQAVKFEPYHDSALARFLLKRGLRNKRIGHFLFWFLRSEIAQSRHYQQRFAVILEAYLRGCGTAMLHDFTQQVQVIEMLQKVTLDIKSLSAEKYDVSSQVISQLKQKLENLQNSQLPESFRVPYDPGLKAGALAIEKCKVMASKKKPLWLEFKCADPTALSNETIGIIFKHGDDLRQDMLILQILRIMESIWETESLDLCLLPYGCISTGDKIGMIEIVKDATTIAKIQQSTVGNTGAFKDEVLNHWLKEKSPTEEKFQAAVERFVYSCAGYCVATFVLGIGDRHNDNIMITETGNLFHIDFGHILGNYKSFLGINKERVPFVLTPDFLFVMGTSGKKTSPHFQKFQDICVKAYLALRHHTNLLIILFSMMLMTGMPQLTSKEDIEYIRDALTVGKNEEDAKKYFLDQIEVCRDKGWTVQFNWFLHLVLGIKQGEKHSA
Sequence of PI3Kβ (P42338 whole entry, the tested form may be a part, canonical isoform): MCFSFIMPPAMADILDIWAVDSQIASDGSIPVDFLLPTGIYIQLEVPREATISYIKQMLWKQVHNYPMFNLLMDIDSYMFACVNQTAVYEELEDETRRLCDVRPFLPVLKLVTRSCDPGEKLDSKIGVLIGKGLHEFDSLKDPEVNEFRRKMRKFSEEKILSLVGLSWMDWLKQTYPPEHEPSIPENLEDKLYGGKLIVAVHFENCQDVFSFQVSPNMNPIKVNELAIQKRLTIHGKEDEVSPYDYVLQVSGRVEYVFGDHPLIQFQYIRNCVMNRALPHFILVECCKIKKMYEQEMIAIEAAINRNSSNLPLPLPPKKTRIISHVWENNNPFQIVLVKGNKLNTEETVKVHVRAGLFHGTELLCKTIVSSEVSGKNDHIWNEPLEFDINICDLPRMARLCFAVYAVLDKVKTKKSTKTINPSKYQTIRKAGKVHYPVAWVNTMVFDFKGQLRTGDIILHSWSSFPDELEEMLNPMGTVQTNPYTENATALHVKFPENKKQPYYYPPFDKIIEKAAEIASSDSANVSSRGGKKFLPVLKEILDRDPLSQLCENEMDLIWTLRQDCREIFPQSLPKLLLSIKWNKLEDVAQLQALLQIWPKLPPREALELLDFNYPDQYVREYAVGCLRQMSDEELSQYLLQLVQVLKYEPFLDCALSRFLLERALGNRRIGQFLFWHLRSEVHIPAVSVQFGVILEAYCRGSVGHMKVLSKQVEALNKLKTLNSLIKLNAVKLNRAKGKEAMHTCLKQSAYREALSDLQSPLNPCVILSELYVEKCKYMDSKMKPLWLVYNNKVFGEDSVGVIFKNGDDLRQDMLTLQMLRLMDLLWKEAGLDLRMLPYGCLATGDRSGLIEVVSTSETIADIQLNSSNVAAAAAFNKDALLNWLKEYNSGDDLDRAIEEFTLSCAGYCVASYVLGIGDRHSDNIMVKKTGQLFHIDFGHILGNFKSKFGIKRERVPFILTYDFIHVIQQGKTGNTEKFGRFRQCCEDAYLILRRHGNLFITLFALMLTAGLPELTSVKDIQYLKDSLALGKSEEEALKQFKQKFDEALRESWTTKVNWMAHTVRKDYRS
Sequence of PI3Kβ (P27986 whole entry partner, the tested form may be a part, canonical isoform): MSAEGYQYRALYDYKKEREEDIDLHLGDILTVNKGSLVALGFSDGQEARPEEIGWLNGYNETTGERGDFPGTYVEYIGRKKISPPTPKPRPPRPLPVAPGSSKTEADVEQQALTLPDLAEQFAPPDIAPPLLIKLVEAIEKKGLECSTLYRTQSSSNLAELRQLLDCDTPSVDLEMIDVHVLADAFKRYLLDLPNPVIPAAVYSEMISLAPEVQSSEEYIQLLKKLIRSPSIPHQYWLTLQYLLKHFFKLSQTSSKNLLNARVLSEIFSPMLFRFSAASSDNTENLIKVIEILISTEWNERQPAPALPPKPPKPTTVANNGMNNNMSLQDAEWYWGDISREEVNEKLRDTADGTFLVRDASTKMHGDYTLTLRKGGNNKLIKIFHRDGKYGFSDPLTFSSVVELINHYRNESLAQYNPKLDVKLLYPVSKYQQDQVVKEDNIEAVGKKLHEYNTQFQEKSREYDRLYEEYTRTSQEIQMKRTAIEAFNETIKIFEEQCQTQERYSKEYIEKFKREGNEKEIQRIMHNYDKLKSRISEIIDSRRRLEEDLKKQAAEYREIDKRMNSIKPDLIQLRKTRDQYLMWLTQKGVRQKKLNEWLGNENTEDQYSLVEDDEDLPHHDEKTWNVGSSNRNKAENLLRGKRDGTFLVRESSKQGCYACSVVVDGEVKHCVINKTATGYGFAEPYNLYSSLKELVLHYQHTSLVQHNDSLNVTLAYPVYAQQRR
Sequence of PI3Kδ (O00329 whole entry): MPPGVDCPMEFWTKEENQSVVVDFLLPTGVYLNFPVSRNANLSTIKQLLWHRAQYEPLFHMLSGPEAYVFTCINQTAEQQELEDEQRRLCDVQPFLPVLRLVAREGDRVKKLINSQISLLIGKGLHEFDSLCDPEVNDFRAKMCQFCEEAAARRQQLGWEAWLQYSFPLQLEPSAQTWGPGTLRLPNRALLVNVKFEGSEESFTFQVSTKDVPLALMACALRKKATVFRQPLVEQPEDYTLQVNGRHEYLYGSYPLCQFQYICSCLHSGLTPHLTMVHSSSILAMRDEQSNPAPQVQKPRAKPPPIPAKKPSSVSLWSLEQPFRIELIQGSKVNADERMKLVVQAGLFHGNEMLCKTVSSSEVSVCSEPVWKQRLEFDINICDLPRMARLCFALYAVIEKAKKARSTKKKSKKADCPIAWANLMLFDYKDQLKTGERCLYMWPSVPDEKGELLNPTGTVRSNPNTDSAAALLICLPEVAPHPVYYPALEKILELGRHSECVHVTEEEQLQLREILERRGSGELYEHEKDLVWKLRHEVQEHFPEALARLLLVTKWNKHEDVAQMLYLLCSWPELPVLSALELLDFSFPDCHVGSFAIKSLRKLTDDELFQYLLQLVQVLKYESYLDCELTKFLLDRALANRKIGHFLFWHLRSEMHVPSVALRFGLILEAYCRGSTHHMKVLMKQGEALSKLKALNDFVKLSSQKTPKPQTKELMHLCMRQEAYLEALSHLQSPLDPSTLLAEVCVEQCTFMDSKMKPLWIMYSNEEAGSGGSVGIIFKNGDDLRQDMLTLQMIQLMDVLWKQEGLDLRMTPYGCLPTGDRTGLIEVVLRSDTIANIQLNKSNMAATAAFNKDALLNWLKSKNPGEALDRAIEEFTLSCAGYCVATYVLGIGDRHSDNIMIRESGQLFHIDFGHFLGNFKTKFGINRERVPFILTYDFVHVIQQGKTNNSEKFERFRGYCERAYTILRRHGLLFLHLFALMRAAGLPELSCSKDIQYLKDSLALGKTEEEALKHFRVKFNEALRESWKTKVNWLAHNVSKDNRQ
Sequence of PI3Kδ (P27986 whole entry partner): as the sequence (P27986 whole entry partner, the tested form may be a part, canonical isoform) above

Compound	IC50 (PI3Kβ) [nM]	IC50 (PI3Kγ) [nM]	IC50 (PI3Kδ) [nM]	PI3Kγ/PI3Kβ ratio (PI3Kβ)	PI3Kγ/PI3Kβ ratio (PI3Kβ; listed as (S)-2,4-diamino-6-(1-(5-chloro-4-oxo-3-phenyl-3,4-dihydroquinazolin-2-yl)ethyl))
N#Cc1c(N)nc(N)nc1N[C@@H](c1ccccc1)c1nc2cccc(Cl)c2c(=O)n1CCCN [Compound 1, (S)-2,4-diamino-6-(((3-(3-aminopropyl)-5-chloro-4-oxo-3,4-dihydroquinazolin-2-yl)(phenyl)methyl)amino)pyrimidine-5-carbonitrile]	27	≥ 10000	9	–	–
C[C@H](Nc1ncnc2scnc12)c1nc2cccc(Cl)c2c(=O)n1CCC(C)(C)N [Compound 2, (S)-3-(3-amino-3-methylbutyl)-5-chloro-2-(1-(thiazolo[5,4-d]pyrimidin-7-ylamino)ethyl)quinazolin-4(3H)-one]	1500	≥ 10000	27	–	–
C[C@H](Nc1nc(N)nc(N)c1C#N)c1nc2cccc(Cl)c2c(=O)n1CCCNc1ncccn1 [Compound 4, (S)-2,4-diamino-6-((1-(5-chloro-4-oxo-3-(3-(pyrimidin-2-ylamino)propyl)-3,4-dihydroquinazolin-2-yl)ethyl)amino)pyrimidine-5-carbonitrile]	420	660	5	–	–
C[C@H](Nc1nc(N)nc(N)c1C#N)c1nc2cccc(Cl)c2c(=O)n1CCCNc1ccccn1 [Compound 5, (S)-2,4-diamino-6-((1-(5-chloro-4-oxo-3-(3-(pyridin-2-ylamino)propyl)-3,4-dihydroquinazolin-2-yl)ethyl)amino)pyrimidine-5-carbonitrile]	930	2200	5	–	–
C[C@H](Nc1ncnc(N)c1C#N)c1nc2cccc(Cl)c2c(=O)n1CCCNCc1ccccc1 [Compound 6, (S)-4-amino-6-((1-(3-(3-(benzylamino)propyl)-5-chloro-4-oxo-3,4-dihydroquinazolin-2-yl)ethyl)amino)pyrimidine-5-carbonitrile]	250	≥ 10000	9	–	–
C[C@H](Nc1ncnn2ccnc12)c1nc2cccc(Cl)c2c(=O)n1N(C)CCN [Compound 11, (S)-3-((2-aminoethyl)(methyl)amino)-5-chloro-2-(1-(imidazo[2,1-f][1,2,4]triazin-4-ylamino)ethyl)quinazolin-4(3H)-one]	93	≥ 10000	37	–	–
C[C@H](Nc1ncnc(N)c1C#N)c1nc2cccc(Cl)c2c(=O)n1N(CCN)Cc1ccccc1 [Compound 12, (S)-4-amino-6-((1-(3-((2-aminoethyl)(benzyl)amino)-5-chloro-4-oxo-3,4-dihydroquinazolin-2-yl)ethyl)amino)pyrimidine-5-carbonitrile]	300	≥ 10000	52	–	–
C[C@H](Nc1nc(N)nc(N)c1C#N)c1nc2cccc(Cl)c2c(=O)n1N(C)CCN [Compound 14, (S)-2,4-diamino-6-((1-(3-((2-aminoethyl)(methyl)amino)-5-chloro-4-oxo-3,4-dihydroquinazolin-2-yl)ethyl)amino)pyrimidine-5-carbonitrile]	9	1900	2	–	–
C[C@H](Nc1ncnc(N)c1C#N)c1nc2cccc(Cl)c2c(=O)n1N(C)CCN [Compound 16, (S)-4-amino-6-((1-(3-((2-aminoethyl)(methyl)amino)-5-chloro-4-oxo-3,4-dihydroquinazolin-2-yl)ethyl)amino)pyrimidine-5-carbonitrile]	42	≥ 10000	7	–	–
C[C@H](Nc1nc(N)nc(N)c1C#N)c1nc2cccc(Cl)c2c(=O)n1-c1ccccc1 [Compound X, (S)-2,4-diamino-6-((1-(5-chloro-4-oxo-3-phenyl-3,4-dihydroquinazolin-2-yl)ethyl)amino)pyrimidine-5-carbonitrile, reference compound]	–	–	–	0.6	less than 1

More lines, now with the values ahead:

IC50 (PI3Kβ) [nM]	IC50 (PI3Kγ) [nM]	IC50 (PI3Kδ) [nM]	PI3Kγ/PI3Kβ ratio (PI3Kβ)	PI3Kγ/PI3Kβ ratio (PI3Kβ; listed as (S)-2,4-diamino-6-(1-(5-chloro-4-oxo-3-phenyl-3,4-dihydroquinazolin-2-yl)ethyl))	Compound
79	1300	3	–	–	C[C@H](Nc1nc(N)nc(N)c1C#N)c1nc2cccc(Cl)c2c(=O)n1CC1CCCNC1 (stereo in doubt) [Compound 123, 2,4-diamino-6-(((S)-1-(5-chloro-4-oxo-3-((R)-piperidin-3-ylmethyl)-3,4-dihydroquinazolin-2-yl)ethyl)amino)pyrimidine-5-carbonitrile]
88	3200	2	–	–	C[C@H](Nc1nc(N)nc(N)c1C#N)c1nc2cccc(Cl)c2c(=O)n1CC1CCCNC1 (stereo in doubt) [Compound 124, 2,4-diamino-6-(((S)-1-(5-chloro-4-oxo-3-((S)-piperidin-3-ylmethyl)-3,4-dihydroquinazolin-2-yl)ethyl)amino)pyrimidine-5-carbonitrile]
1300	≥ 10000	15	–	–	C[C@H](Nc1ncnc(N)c1C#N)c1nc2cccc(Cl)c2c(=O)n1CCC(C)(C)N [Compound 3, (S)-4-amino-6-((1-(3-(3-amino-3-methylbutyl)-5-chloro-4-oxo-3,4-dihydroquinazolin-2-yl)ethyl)amino)pyrimidine-5-carbonitrile]
140	≥ 10000	35	–	–	C[C@H](Nc1nc(N)nc(N)c1Cl)c1nc2cccc(Cl)c2c(=O)n1CCCN [Compound 7, (S)-3-(3-aminopropyl)-5-chloro-2-(1-((2,6-diamino-5-chloropyrimidin-4-yl)amino)ethyl)quinazolin-4(3H)-one]
68	1700	5	–	–	C[C@H](Nc1nc(N)nc(N)c1C#N)c1nc2cccc(Cl)c2c(=O)n1CCCNCc1ccccc1 [Compound 8, (S)-2,4-diamino-6-((1-(3-(3-(benzylamino)propyl)-5-chloro-4-oxo-3,4-dihydroquinazolin-2-yl)ethyl)amino)pyrimidine-5-carbonitrile]
170	≥ 10000	77	–	–	C[C@H](Nc1nc(N)nc(N)c1C#N)c1nc2cccc(Cl)c2c(=O)n1N(CCN)Cc1ccccc1 [Compound 9, (S)-2,4-diamino-6-((1-(3-((2-aminoethyl)(benzyl)amino)-5-chloro-4-oxo-3,4-dihydroquinazolin-2-yl)ethyl)amino)pyrimidine-5-carbonitrile]
840	≥ 10000	480	–	–	C[C@H](Nc1nc(N)nc(N)c1C#N)c1nc2cccc(Cl)c2c(=O)n1N(CCN)Cc1ccccc1 [Compound 10, (S)-2,4-diamino-6-((1-(3-((2-aminoethyl)(benzyl)amino)-5-chloro-4-oxo-3,4-dihydroquinazolin-2-yl)ethyl)amino)pyrimidine-5-carbonitrile]
6800	≥ 10000	3300	–	–	C[C@H](Nc1ncnc(N)c1C#N)c1nc2cccc(Cl)c2c(=O)n1N(CCN)Cc1ccccc1 [Compound 13, (S)-4-amino-6-((1-(3-((2-aminoethyl)(benzyl)amino)-5-chloro-4-oxo-3,4-dihydroquinazolin-2-yl)ethyl)amino)pyrimidine-5-carbonitrile]
2	1700	3	–	–	C[C@H](Nc1nc(N)nc(N)c1C#N)c1nc2cccc(Cl)c2c(=O)n1N(C)CCN [Compound 15, (S)-2,4-diamino-6-((1-(3-((2-aminoethyl)(methyl)amino)-5-chloro-4-oxo-3,4-dihydroquinazolin-2-yl)ethyl)amino)pyrimidine-5-carbonitrile]
